Reference: US20100216779A1 (GLAXOSMITHKLINE LLC, priority 2007, published 2010)

Key:
Format in all cases: cell-based
[1] = molecular target: T1, human IGF-1R (NIH-3T3 cells over expressing human IGF-1R) (Homo sapiens, UniProt P08069); assay: IGF-1R cellular autophosphorylation (DELFIA); conditions: IGF-1 stimulated
T1 construct: expressed in transfected cells; host or cells: NIH-3T3 (mouse fibroblasts)
Procedure: (§1) D. IGF-1R and IR Cellular Autophosphorylation (DELFIA)
(§2) NIH-3T3 cells over expressing human IGF-1R or IR were plated in 96-well plates (10,000 cells/well) in culture media containing 10% fetal bovine serum and incubated at 37° C. in a 5% CO2 incubator. Twenty four hours post-plating, cells were treated with different concentrations of test compounds ranging from 30 uM to 1.5 nM. Two hours after compound addition, cells were stimulated with either human IGF-1 (30 ng/mL) or insulin (3 ug/mL) for 15 minutes. Cell lysates are analyzed for phosphorylated receptors using dissociation enhanced lanthanide fluor-immuno assay (DELFIA) with anti-IGF-1R (MAB391, R&D Systems, Minneapolis, Minn.) or anti-IR[…](sc-711, Santa Cruz Biotechnology, Santa Cruz, Calif.) capture antibody and europium-labeled anti-pTyr antibody (Eu-N1 PT66, Perkin Elmer, Waltham, Mass.) for detection. The fluorescence signal for cells treated with compounds was expressed as percent relative to 100% stimulation (IGF-1 or insulin stimulated signal). […]

[2] = molecular target: T2, IR (NIH-3T3 cells over expressing human IGF-1R or IR) (Homo sapiens, UniProt P06213); assay: IR cellular autophosphorylation (DELFIA); conditions: NIH-3T3 cells over expressing IR, insulin stimulated
T2 construct: expressed in transfected cells; host or cells: NIH-3T3 (mouse fibroblasts)
T2 sequence (P06213 28-1382): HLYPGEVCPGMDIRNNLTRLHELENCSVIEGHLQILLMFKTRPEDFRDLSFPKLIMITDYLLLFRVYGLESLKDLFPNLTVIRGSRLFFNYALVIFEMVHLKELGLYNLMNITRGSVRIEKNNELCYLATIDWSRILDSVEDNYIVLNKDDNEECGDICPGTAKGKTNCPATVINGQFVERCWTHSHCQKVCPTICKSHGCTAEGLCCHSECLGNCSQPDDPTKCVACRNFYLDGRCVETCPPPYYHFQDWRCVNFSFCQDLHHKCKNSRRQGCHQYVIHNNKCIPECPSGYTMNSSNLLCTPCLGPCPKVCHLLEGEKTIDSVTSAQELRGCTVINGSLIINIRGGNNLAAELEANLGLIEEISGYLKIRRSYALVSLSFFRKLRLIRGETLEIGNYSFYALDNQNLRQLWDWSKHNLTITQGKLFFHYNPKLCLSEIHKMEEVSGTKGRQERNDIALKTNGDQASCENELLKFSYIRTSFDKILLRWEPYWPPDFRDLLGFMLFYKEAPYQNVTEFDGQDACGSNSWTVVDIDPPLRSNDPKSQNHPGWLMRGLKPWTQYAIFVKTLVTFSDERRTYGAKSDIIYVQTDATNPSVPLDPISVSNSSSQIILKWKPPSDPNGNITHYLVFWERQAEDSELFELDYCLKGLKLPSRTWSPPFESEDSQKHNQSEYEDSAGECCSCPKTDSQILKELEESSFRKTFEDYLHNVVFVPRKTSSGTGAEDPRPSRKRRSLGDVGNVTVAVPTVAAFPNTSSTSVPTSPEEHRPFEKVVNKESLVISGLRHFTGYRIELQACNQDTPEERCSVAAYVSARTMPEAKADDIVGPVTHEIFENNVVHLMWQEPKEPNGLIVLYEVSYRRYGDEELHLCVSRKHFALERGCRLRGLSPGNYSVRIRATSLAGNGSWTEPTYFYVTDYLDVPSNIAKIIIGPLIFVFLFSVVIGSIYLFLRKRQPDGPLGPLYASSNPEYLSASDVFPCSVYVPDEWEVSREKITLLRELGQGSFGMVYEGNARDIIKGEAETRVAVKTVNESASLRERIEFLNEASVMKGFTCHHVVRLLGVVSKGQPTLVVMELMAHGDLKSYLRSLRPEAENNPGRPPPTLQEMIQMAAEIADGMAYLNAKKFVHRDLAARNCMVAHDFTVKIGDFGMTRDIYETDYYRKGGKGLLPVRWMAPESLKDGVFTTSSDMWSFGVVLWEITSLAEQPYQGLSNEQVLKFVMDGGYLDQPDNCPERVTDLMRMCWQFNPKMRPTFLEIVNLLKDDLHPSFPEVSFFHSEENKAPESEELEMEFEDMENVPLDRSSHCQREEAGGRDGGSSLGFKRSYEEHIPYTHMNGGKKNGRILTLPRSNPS
Procedure: as §1, §2

COLO205 (colon) = assay: Inhibition of cell proliferation, CellTiter-Glo, COLO205; conditions: Homo sapiens, COLO 205, 72 h
Procedure: C. Inhibition of Cell Proliferation
Cell proliferation was measured by either CellTiter-Glo (measures cellular ATP level as a surrogate for total cell number) or by InCell analyzer (counts number of nuclei as a measure of cell number). For CellTiter-Glo assay, exponentially growing cell lines of different tumor origins, cultured in appropriate media containing 10% fetal bovine serum at 37° C. in a 5% CO2 incubator, were plated at low density (less than 2000 cells/well) in 96-well plates. […] Several wells were left untreated as a control. Seventy two hours post-treatment, cell numbers were determined using 50-100 ul per well of CellTiter-Glo (Promega #G7573). Plates were incubated at 37° C. for 30 minutes and the chemiluminescent signal was read on the Victor V or Envison 2100 reader. […]

T1 sequence (P08069 31-1367): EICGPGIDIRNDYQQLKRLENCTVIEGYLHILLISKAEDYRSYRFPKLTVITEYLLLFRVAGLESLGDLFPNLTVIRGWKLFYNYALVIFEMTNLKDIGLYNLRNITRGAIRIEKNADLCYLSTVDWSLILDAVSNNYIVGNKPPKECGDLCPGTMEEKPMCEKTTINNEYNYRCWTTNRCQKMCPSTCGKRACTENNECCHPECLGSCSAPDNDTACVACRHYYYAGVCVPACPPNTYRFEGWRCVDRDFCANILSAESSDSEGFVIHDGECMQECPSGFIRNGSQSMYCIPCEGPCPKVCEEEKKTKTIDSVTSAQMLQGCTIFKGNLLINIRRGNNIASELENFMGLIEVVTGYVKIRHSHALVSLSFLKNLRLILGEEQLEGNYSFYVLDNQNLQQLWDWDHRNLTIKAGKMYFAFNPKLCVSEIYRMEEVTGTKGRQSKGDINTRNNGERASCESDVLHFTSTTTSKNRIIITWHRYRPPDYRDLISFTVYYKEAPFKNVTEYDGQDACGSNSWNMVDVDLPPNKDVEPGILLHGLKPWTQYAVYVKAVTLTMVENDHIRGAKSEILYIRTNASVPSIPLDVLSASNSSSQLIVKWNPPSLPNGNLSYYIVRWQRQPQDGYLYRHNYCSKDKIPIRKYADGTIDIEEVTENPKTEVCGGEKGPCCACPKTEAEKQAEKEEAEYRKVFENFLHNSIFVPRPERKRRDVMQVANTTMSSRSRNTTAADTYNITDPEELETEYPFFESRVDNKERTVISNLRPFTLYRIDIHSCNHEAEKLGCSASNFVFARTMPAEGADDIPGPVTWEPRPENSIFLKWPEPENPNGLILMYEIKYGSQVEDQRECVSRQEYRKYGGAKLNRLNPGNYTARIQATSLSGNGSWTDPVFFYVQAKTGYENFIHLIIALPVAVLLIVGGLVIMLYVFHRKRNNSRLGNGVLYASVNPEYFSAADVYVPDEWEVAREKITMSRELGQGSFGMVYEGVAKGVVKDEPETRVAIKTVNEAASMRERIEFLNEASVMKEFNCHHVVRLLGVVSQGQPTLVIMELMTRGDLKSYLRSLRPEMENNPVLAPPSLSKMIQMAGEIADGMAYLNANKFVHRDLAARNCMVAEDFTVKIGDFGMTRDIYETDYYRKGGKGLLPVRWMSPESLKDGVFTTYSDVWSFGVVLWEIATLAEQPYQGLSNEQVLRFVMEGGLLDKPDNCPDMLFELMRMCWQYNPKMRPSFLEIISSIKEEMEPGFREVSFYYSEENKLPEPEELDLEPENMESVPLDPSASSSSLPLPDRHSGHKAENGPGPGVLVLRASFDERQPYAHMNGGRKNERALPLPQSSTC

IC50 [1] [nM]	IC50 [2] [nM]	IC50 (COLO205 (colon)) [nM]	Structure (SMILES)
< 100	100 to 500	–	Cc1cc(OC2CCN(CCS(C)(=O)=O)CC2)ccc1Nc1nccc(-c2c(-c3cccc(C(=O)Nc4c(F)cccc4F)c3)nc3ccccn23)n1 [Example 8, N-(2,6-difluorophenyl)-3-[3-(2-{[2-methyl-4-({1-[2-(methylsulfonyl)ethyl]-4-piperidinyl}oxy)phenyl]amino}-4-pyrimidinyl)imidazo[1,2-a]pyridin-2-yl]benzamide]
< 100	> 500	–	Cc1cc(OC2CCN(C)CC2)ccc1Nc1nccc(-c2c(-c3cccc(C(=O)Nc4c(F)cccc4F)c3)nc3ccccn23)n1 [Example 7, N-(2,6-difluorophenyl)-3-{3-[2-({2-methyl-4-[(1-methyl-4-piperidinyl)oxy]phenyl}amino)-4-pyrimidinyl]imidazo[1,2-a]pyridin-2-yl}benzamide]
< 100	< 100	< 250	COc1cc(N2CCC(N3CCCCC3)CC2)c(Cl)cc1Nc1nccc(-c2c(-c3ccc(OC)c(C(=O)Nc4c(F)cccc4F)c3)nc3ccccn23)n1 [Example 105, 5-[3-(2-{[4-(1,4′-bipiperidin-1′-yl)-5-chloro-2-(methyloxy)phenyl]amino]-4-pyrimidinyl)imidazo[1,2-a]pyridin-2-yl]-N-(2,6-difluorophenyl)-2-(methyloxy)benzamide]
< 100	< 100	< 250	COc1cc(N2CCC(N3CCCC3)CC2)ccc1Nc1nccc(-c2c(-c3cccc(C(=O)Nc4c(F)cccc4F)c3)nc3ccccn23)n1 [Example 78, N-(2,6-difluorophenyl)-3-{3-[2-({2-(methyloxy)-4-[4-(1-pyrrolidinyl)-1-piperidinyl]-phenyl}amino)-4-pyrimidinyl]imidazo[1,2-a]pyridin-2-yl}benzamide]
< 100	100 to 500	> 1000	COc1ccn2c(-c3ccnc(Nc4ccc(N5CCC(N6CCCCC6)CC5)cc4OC)n3)c(-c3cccc(C(=O)Nc4c(F)cccc4F)c3)nc2c1 [Example 39, 3-[3-(2-{[4-(1,4′-bipiperidin-1′-yl)-2-(methyloxy)phenyl]amino}-4-pyrimidinyl)-7-(methyloxy)imidazo[1,2-a]pyridin-2-yl]-N-(2,6-difluorophenyl)benzamide]
< 100	< 100	–	COc1cc(N2CCC(N3CCCCC3)CC2)c(C)cc1Nc1nccc(-c2c(-c3cccc(C(=O)Nc4c(F)cccc4F)c3)nc3ccccn23)n1 [Example 108, 3-[3-(2-{[4-(1,4′-bipiperidin-1′-yl)-5-methyl-2-(methyloxy)phenyl]amino]-4-pyrimidinyl)imidazo[1,2-a]pyridin-2-yl]-N-(2,6-difluorophenyl)benzamide]
100 to 500	> 500	–	Cc1cc(OC2CCNCC2)ccc1Nc1nccc(-c2c(-c3cccc(C(=O)Nc4c(F)cccc4F)c3)nc3ccccn23)n1 [Example 6, N-(2,6-difluorophenyl)-3-[3-(2-{[2-methyl-4-(4-piperidinyloxy)phenyl]amino}-4-pyrimidinyl)imidazo[1,2-a]pyridin-2-yl]benzamide]
< 100	–	250 to 1000	COc1ccc(N2CCC(N3CCCCC3)CC2)cc1Nc1nccc(-c2c(-c3ccc(OC)c(C(=O)Nc4c(F)cccc4F)c3)nc3ccccn23)n1 [Example 31, 5-[3-(2-{[5-(1,4′-bipiperidin-1-yl)-2-(methyloxy)phenyl]amino}-4-pyrimidinyl)imidazo[1,2-a]pyridin-2-yl]-N-(2,6-difluorophenyl)-2-(methyloxy)benzamide]
< 100	–	250 to 1000	COc1cc(N2CCC(N3CC[C@@H](F)C3)CC2)ccc1Nc1nccc(-c2c(-c3cccc(C(=O)Nc4c(F)cccc4F)c3)nc3ccccn23)n1 [Example 76, N-(2,6-difluorophenyl)-3-[3-(2-{[4-{4-[(3R)-3-fluoro-1-pyrrolidinyl]-1-piperidinyl}-2-(methyloxy)phenyl]amino}-4-pyrimidinyl)imidazo[1,2-a]pyridin-2-yl]benzamide]
100 to 500	–	250 to 1000	COc1ccn2c(-c3ccnc(Nc4cccc(OCCN(C)C)c4)n3)c(-c3ccc(OC)c(C(=O)Nc4c(F)cccc4F)c3)nc2c1 [Example 3, N-(2,6-difluorophenyl)-5-[3-{2-[(3-{[2-(dimethylamino)ethyl]oxy}phenyl)amino]-4-pyrimidinyl}-7-(methyloxy)imidazo[1,2-a]pyridin-2-yl]-2-(methyloxy)benzamide]
100 to 500	–	250 to 1000	COc1ccc(-c2nc3ccccn3c2-c2ccnc(Nc3cccc(CN4CCN(C)CC4)c3C)n2)cc1C(=O)Nc1c(F)cccc1F [Example 25, N-(2,6-difluorophenyl)-5-{3-[2-({2-methyl-3-[(4-methyl-1-piperazinyl)methyl]phenyl}amino)-4-pyrimidinyl}imidazo[1,2-a]pyridin-2-yl]-2-(methyloxy)benzamide]
< 100	–	250 to 1000	COc1cc(N2CCN(C(C)C)CC2)ccc1Nc1nccc(-c2c(-c3cccc(C(=O)Nc4c(F)cccc4F)c3)nc3ccccn23)n1 [Example 175, N-(2,6-difluorophenyl)-3-[3-(2-{[4-[4-(1-methylethyl)-1-piperazinyl]-2-(methyloxy)phenyl]amino}-4-pyrimidinyl)imidazo[1,2-a]pyridin-2-yl]benzamide]
< 100	–	250 to 1000	Cc1c(CN2CCN(C)CC2)cccc1Nc1nccc(-c2c(-c3cccc(C(=O)Nc4c(F)cccc4F)c3)nc3ccccn23)n1 [Example 24]
–	> 500	> 1000	COc1cc(-c2nnc(CN(C)C)o2)ccc1Nc1nccc(-c2c(-c3cccc(C(=O)Nc4c(F)cccc4F)c3)nc3ccccn23)n1 [Example 27, N-(2,6-difluorophenyl)-3-[3-(2-{[4-{5-[(dimethylamino)methyl]-1,3,4-oxadiazol-2-yl}-2-(methyloxy)phenyl]amino}-4-pyrimidinyl)imidazo[1,2-a]pyridin-2-yl]benzamide]
< 100	–	250 to 1000	COc1cc(N2CCC(N3CCCC(F)(F)C3)CC2)ccc1Nc1nccc(-c2c(-c3cccc(C(=O)Nc4c(F)cccc4F)c3)nc3ccccn23)n1 [Example 75, 3-[3-(2-{[4-(3,3-difluoro-1,4′-bipiperidin-1′-yl)-2-(methyloxy)phenyl]amino]-4-pyrimidinyl)imidazo[1,2-a]pyridin-2-yl]-N-(2,6-difluorophenyl)benzamide]
< 100	< 100	–	CCc1cc(Nc2nccc(-c3c(-c4ccc(OC)c(C(=O)Nc5c(F)cccc5F)c4)nc4ccccn34)n2)c(OC)cc1N1CCN(CCS(C)(=O)=O)CC1 [Example 187, N-(2,6-difluorophenyl)-5-(3-{2-[(5-ethyl-2-(methyloxy)-4-{4-[2-(methylsulfonyl)ethyl]-1-piperazinyl}phenyl)amino]-4-pyrimidinyl}imidazo[1,2-a]pyridin-2-yl)-2-(methyloxy)benzamide]

Structure (SMILES)	IC50 [1] [nM]	IC50 [2] [nM]	IC50 (COLO205 (colon)) [nM]
COc1cc(N2CCC(N3CCN(CCF)CC3)CC2)c(Cl)cc1Nc1nccc(-c2c(-c3cccc(C(=O)Nc4c(F)cccc4F)c3)nc3ccccn23)n1 [Example 112, 3-[3-(2-{[5-chloro-4-{4-[4-(2-fluoroethyl)-1-piperazinyl]-1-piperidinyl}-2-(methyloxy)phenyl]amino}-4-pyrimidinyl)imidazo[1,2-a]pyridin-2-yl]-N-(2,6-difluorophenyl)benzamide]	< 100	< 100	–
